# From PMC6272417, “Quercitrin, an Inhibitor of Sortase A, Interferes with the Adhesion of Staphylococcal aureus” (Molecules, 2015)
# Legend:
# Settings in all cases: read-out: Binding Constants KA (1 × 10^5) L.mol^-1 (converted)
# Sortase A (SrtA) [1] = molecular target: T1, Sortase A (SrtA) (Staphylococcus aureus, UniProt Q2FV99); test: fluorescence-quenching binding constant KA; also FRET inhibition of purified SrtAΔN59 (IC50 […])
# T1 construct: SrtAΔN59 (residues 60-206)
# Sortase A (SrtA) [2] = molecular target: T2, Sortase A (SrtA) (Staphylococcus aureus, UniProt Q2FV99, G167A); test: fluorescence-quenching binding constant KA
# T2 construct: SrtAΔN59 (residues 60-206)
# Sortase A (SrtA) [3] = molecular target: T3, Sortase A (SrtA) (Staphylococcus aureus, UniProt Q2FV99, V193A); test: fluorescence-quenching binding constant KA
# T3 construct: SrtAΔN59 (residues 60-206)
compound,measurement,setting,value
"C[C@@H]1O[C@@H](Oc2c(-c3ccc(O)c(O)c3)oc3cc(O)cc(O)c3c2=O)[C@H](O)[C@H](O)[C@H]1O [QEN, Quercitrin]",Kd,Sortase A (SrtA) [1],1.45 µM
same,Kd,Sortase A (SrtA) [2],2.7 µM
same,Kd,Sortase A (SrtA) [3],2.38 µM
